Source: the supplement of paper PMC11061612

Assays:
Assay in all cases: combination Emax (second highest fraction inhibited in the dose matrix, 72 h); higher = more inhibition; extreme values may be limits of the assay
CAL-78 (Chondrosarcoma) = tested on: CAL-78 (Chondrosarcoma)
In short: (§1)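 Cell lines grown in DMEM/F12 or RPMI with 10% FBS were plated in 1536-well plates and held 24 hours at 37°C, 5% CO2 before 72 hours of exposure to two-drug dose matrices, with DMSO typically at 0.2%. CellTiter-Glo 2.0 luminescence gave viability, which was converted to inhibition. Vehicle wells were set to 0 and blank wells to 1. Combination Emax is the second-highest inhibition in the matrix, and Bliss excess is the observed combination effect minus the expected EA + EB − EA·EB, where EA and EB are the single-agent effects.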

[1] = tested on: COR-L23 (Non-Small Cell Lung Carcinoma)
In short: as §1

[2] = tested on: CTV-1 (T-Lymphoblastic Leukemia)
In short: as §1

[3] = tested on: EM-2 (Chronic Myelogenous Leukemia)
In short: as §1

[4] = tested on: HPAC (Pancreatic Carcinoma)
In short: as §1

J82 (Bladder Carcinoma) = tested on: J82 (Bladder Carcinoma)
In short: as §1

[5] = tested on: JiyoyeP-2003 (Burkitt's Lymphoma)
In short: as §1

[6] = tested on: KATOIII (Gastric Carcinoma)
In short: as §1

[7] = tested on: MDA-MB-157 (Breast Carcinoma)
In short: as §1

[8] = tested on: MFH-ino (Other Solid Carcinomas)
In short: as §1

[9] = tested on: NCI-H1299 (Non-Small Cell Lung Carcinoma)
In short: as §1

[10] = tested on: NCI-H1694 (Small Cell Lung Carcinoma)
In short: as §1

NCI-H2595 (Mesothelioma) = tested on: NCI-H2595 (Mesothelioma)
In short: as §1

[11] = tested on: OCI-AML2 (Acute Myeloid Leukemia)
In short: as §1

SK-N-FI (Neuroblastoma) = tested on: SK-N-FI (Neuroblastoma)
In short: as §1

[12] = tested on: SNU-C5 (Colorectal Carcinoma)
In short: as §1

[13] = tested on: SW1783 (Low Grade Glioma)
In short: as §1

[14] = tested on: SW1990 (Pancreatic Carcinoma)
In short: as §1

[15] = tested on: TE-5 (Esophageal Squamous Cell Carcinoma)
In short: as §1

[16] = tested on: U-266 (Plasma Cell Myeloma)
In short: as §1

| SMILES | combination Emax (CAL-78 (Chondrosarcoma)) | combination Emax [1] | combination Emax [2] | combination Emax [3] | combination Emax [4] | combination Emax (J82 (Bladder Carcinoma)) | combination Emax [5] | combination Emax [6] | combination Emax [7] | combination Emax [8] | combination Emax [9] | combination Emax [10] | combination Emax (NCI-H2595 (Mesothelioma)) | combination Emax [11] | combination Emax (SK-N-FI (Neuroblastoma)) | combination Emax [12] | combination Emax [13] | combination Emax [14] | combination Emax [15] | combination Emax [16] |
| --- | --- | --- | --- | --- | --- | --- | --- | --- | --- | --- | --- | --- | --- | --- | --- | --- | --- | --- | --- | --- |
| COc1cccc(OCCCN)c1-c1cc(Nc2cnc(C#N)cn2)n[nH]1 [Prexasertib] + Cc1cc2ncnn2cc1Nc1ncc2c(n1)n(C1CCOCC1)c(=O)n2C [AZD7648] (first compound max 1 µM, 7x7, partner max 10 µM) | 0.586 | 0.711 | 0.966 | 0.99 | 0.816 | 0.377 | 0.984 | 0.526 | 0.961 | 0.464 | 0.711 | 0.808 | 0.159 | 1 | 0.915 | 0.886 | 0.473 | 0.703 | 0.526 | 0.713 |
| COc1nnc2ccc(N3CCC(c4ccc(OCCN5CCN(C)C(=O)[C@H]5C)cc4)CC3)nn12 [AZD5153] + CC1(C)CCC(CN2CCN(c3ccc(C(=O)NS(=O)(=O)c4ccc(NCC5CCOCC5)c([N+](=O)[O-])c4)c(Oc4cnc5[nH]ccc5c4)c3)CC2)=C(c2ccc(Cl)cc2)C1 [Venetoclax] (first compound max 1 µM, 7x7, partner max 1 µM) | 0.457 | 0.317 | 0.963 | 0.918 | 0.535 | 0.308 | 0.833 | 0.337 | 0.498 | 0.415 | 0.691 | 0.551 | 0.375 | 1 | 0.629 | 0.522 | 0.28 | 0.108 | 0.412 | 0.272 |
| C[C@@H](c1ccc2nccn2c1)n1nnc2ncc(-c3cnn(C)c3)nc21 [Savolitinib] + CC1(C)CCC(CN2CCN(c3ccc(C(=O)NS(=O)(=O)c4ccc(NCC5CCOCC5)c([N+](=O)[O-])c4)c(Oc4cnc5[nH]ccc5c4)c3)CC2)=C(c2ccc(Cl)cc2)C1 [Venetoclax] (first compound max 1 µM, 7x7, partner max 1 µM) | 0.187 | 0.111 | 0.091 | 0.132 | 0.143 | 0.145 | 0.162 | 0.337 | 0.11 | 0.171 | 0.14 | 0.102 | 0.227 | 0.93 | 0.192 | 0.183 | 0.156 | 0.225 | 0.123 | 0.259 |
| CC1(C)CCC(CN2CCN(c3ccc(C(=O)NS(=O)(=O)c4ccc(NCC5CCOCC5)c([N+](=O)[O-])c4)c(Oc4cnc5[nH]ccc5c4)c3)CC2)=C(c2ccc(Cl)cc2)C1 [Venetoclax] + C[C@@H]1COCCN1C2=NC(=NC(=C2)C3(CC3)[S@](=N)(=O)C)C4=C5C=CNC5=NC=C4 [AZD6738] (first compound max 1 µM, 7x7, partner max 10 µM) | 0.605 | 0.585 | 0.924 | 0.943 | 0.611 | 0.483 | 0.954 | 0.462 | 0.886 | 0.5 | 0.534 | 0.822 | 0.249 | 1 | 0.766 | 0.784 | 0.503 | 0.666 | 0.593 | 0.614 |
| C=CCn1c(=O)c2cnc(Nc3ccc(N4CCN(C)CC4)cc3)nc2n1-c1cccc(C(C)(C)O)n1 [AZD1775] + O=C(c1cc(Cc2n[nH]c(=O)c3ccccc23)ccc1F)N1CCN(C(=O)C2CC2)CC1 [Olaparib] (first compound max 1 µM, partner max 10 µM) | 0.446 | 0.224 | 0.977 | 0.938 | 0.649 | 0.195 | 0.915 | 0.198 | 0.723 | 0.413 | 0.792 | 0.404 | 0.179 | 0.992 | 0.715 | 0.567 | 0.342 | 0.404 | 0.411 | 0.763 |
| CN(C)CCCOc1ccc(-c2ccc3ncc4c(c3c2)n(C2CCOCC2)c(=O)n4C)cn1 [AZD0156] + C=CCn1c(=O)c2cnc(Nc3ccc(N4CCN(C)CC4)cc3)nc2n1-c1cccc(C(C)(C)O)n1 [AZD1775] (first compound max 1 µM, partner max 1 µM) | 0.428 | 0.298 | 0.962 | 0.902 | 0.67 | 0.333 | 0.937 | 0.213 | 0.673 | 0.169 | 0.742 | 0.367 | 0.12 | 0.97 | 0.722 | 0.583 | 0.179 | 0.483 | 0.352 | 0.737 |
| C[C@@H](c1ccc2nccn2c1)n1nnc2ncc(-c3cnn(C)c3)nc21 [Savolitinib] + Cc1c2c(nn1C)CSCc1cc(n(C)n1)CSc1cc(c3ccccc3c1)OCCCc1c(C(=O)O)n(C)c3c-2c(Cl)ccc13 [AZD5991] (first compound max 1 µM, 7x7, partner max 1 µM) | 0.697 | 0.142 | 0.113 | 0.364 | 0.168 | 0.205 | 0.166 | 0.211 | 0.639 | 0.207 | 0.151 | 0.371 | 0.302 | 0.88 | 0.24 | 0.177 | 0.22 | 0.127 | 0.147 | 0.859 |
| Cn1cnc2c(F)c(Nc3ccc(Br)cc3Cl)c(C(=O)NOCCO)cc21 [Selumetinib] + C[C@@H]1COCCN1C2=NC(=NC(=C2)C3(CC3)[S@](=N)(=O)C)C4=C5C=CNC5=NC=C4 [AZD6738] (first compound max 10 µM, 7x7, partner max 10 µM) | 0.42 | 0.615 | 0.906 | 0.954 | 0.735 | 0.482 | 0.947 | 0.415 | 0.92 | 0.421 | 0.543 | 0.728 | 0.165 | 1 | 0.746 | 0.789 | 0.362 | 0.502 | 0.464 | 0.717 |
| CCN(CCO)CCCOc1ccc2c(Nc3cc(CC(=O)Nc4cccc(F)c4)[nH]n3)ncnc2c1 [AZD2811] + C=CCn1c(=O)c2cnc(Nc3ccc(N4CCN(C)CC4)cc3)nc2n1-c1cccc(C(C)(C)O)n1 [AZD1775] (first compound max 1 µM, partner max 1 µM) | 0.51 | 0.349 | 0.969 | 0.96 | 0.643 | 0.315 | 0.926 | 0.221 | 0.729 | 0.183 | 0.763 | 0.374 | 0.0802 | 0.991 | 0.666 | 0.59 | 0.193 | 0.458 | 0.313 | 0.605 |
| NC1(C(=O)N[C@@H](CCO)c2ccc(Cl)cc2)CCN(c2ncnc3[nH]ccc23)CC1 [Capivasertib] + Cn1cnc2c(F)c(Nc3ccc(Br)cc3Cl)c(C(=O)NOCCO)cc21 [Selumetinib] (first compound max 10 µM, 7x7, partner max 10 µM) | 0.452 | 0.609 | 0.852 | 0.771 | 0.783 | 0.413 | 0.775 | 0.431 | 0.292 | 0.556 | 0.615 | 0.204 | 0.29 | 1 | 0.614 | 0.656 | 0.415 | 0.368 | 0.56 | 0.694 |
| COc1cccc(OCCCN)c1-c1cc(Nc2cnc(C#N)cn2)n[nH]1 [Prexasertib] + CCc1c2c(nc3ccc(O)cc13)-c1cc3c(c(=O)n1C2)COC(=O)[C@]3(O)CC [SN-38] (first compound max 1 µM, 7x7, partner max 0.3 µM) | 0.906 | 0.852 | 0.999 | 0.982 | 0.887 | 0.894 | 1 | 0.562 | 0.989 | 0.704 | 0.79 | 1 | 0.426 | 1 | 0.886 | 0.928 | 0.847 | 0.741 | 0.818 | 0.703 |
| Cc1nc(Nc2ncc(C(=O)Nc3c(C)cccc3Cl)s2)cc(N2CCN(CCO)CC2)n1 [Dasatinib] + CC(=O)Nc1cccc(-n2c(=O)n(C3CC3)c(=O)c3c(Nc4ccc(I)cc4F)n(C)c(=O)c(C)c32)c1 [Trametinib] (first compound max 2 µM, 7x7, partner max 1 µM) | 0.474 | 0.85 | 1 | 0.861 | 0.893 | 0.276 | 0.715 | 0.629 | 0.234 | 0.513 | 0.795 | 0.111 | 0.265 | 1 | 0.757 | 0.571 | 0.43 | 0.399 | 0.322 | 0.832 |
| CC1(C)CCC(CN2CCN(c3ccc(C(=O)NS(=O)(=O)c4ccc(NCC5CCOCC5)c([N+](=O)[O-])c4)c(Oc4cnc5[nH]ccc5c4)c3)CC2)=C(c2ccc(Cl)cc2)C1 [Venetoclax] + Cc1cc2ncnn2cc1Nc1ncc2c(n1)n(C1CCOCC1)c(=O)n2C [AZD7648] (first compound max 1 µM, 7x7, partner max 10 µM) | 0.234 | 0.164 | 0.362 | 0.254 | 0.288 | 0.131 | 0.317 | 0.214 | 0.571 | 0.318 | 0.224 | 0.223 | 0.228 | 1 | 0.262 | 0.261 | 0.237 | 0.572 | 0.284 | 0.511 |
